# Source: patent US8785451B2, “Compounds for the treatment of proliferative disorders” (Synta Pharmaceuticals Corp., priority 2006, dated 2014)
# Test system: inducible human Hsp70
# Experiment: Hsp70 RNA induction by quantitative PCR analysis
# Format: cell-based
# Conditions: Ramos B cells, 500 nM compound, 6 hours, Hsp70 RNA relative to gapdh; for fold induction at 0.5 µM: Homo sapiens, read-out: fold induction over DMSO; for % induction relative to Compound X: Compound X set to 100%
# Experimental: The ability of the compounds of the invention to induce Hsp70 RNA induction by quantitative PCR analysis was examined. Ramos B cells were treated with 500 nM each compound for 6 hours and the RNA was isolated from the cells. Quantitative PCR was performed as described below:
# Details for Quantitative PCR are as follows:
# 500 ng of RNA from each sample was used for cDNA synthesis using iScript cDNA Synthesis Kit (Biorad, Cat#170-8891). 1 ul of cDNA mixture was used with the iQ SYBR Green Supermix (Biorad, Cat#170-8882) to perform quantitative PCR in an iCycler machine (Biorad) using standard protocols. QPCR for each sample/time point was performed in duplicate. The following primers for inducible human Hsp70 and gapdh were used: […]
# Ct values were obtained from the iCycler program and used in an equation (2^−ΔΔCT) for determining the amount of target relative to gapdh expression. This compares the relative expression of Hsp70 to the corresponding levels of gapdh in each sample. Duplicate wells were averaged. The amount of N-Malonyl-bis(N′-methyl-N′ thiobenzoylhydrazide) (Compound X) induction of Hsp70 was set to 100% and the percent of induction of Hsp70 by the compounds of the invention was determined relative to 100%.
Compound,fold induction at 0.5 µM,% induction relative to Compound X [%]
"CN(/N=C1\CCC/C(=N\N(C)C(=S)c2ccccc2)C1)C(=S)c1ccccc1 [Compound 22, (N′,N″E,N′,N″E)-N′,N″-(cyclohexane-1,3-diylidene)bis(N-methylbenzothiohydrazide)]",0.16,0.06
"CN(/N=C/c1cccc(/C=N/N(C)C(=S)c2ccccc2)c1)C(=S)c1ccccc1 [Compound 17, (N′,N″E,N′,N″E)-N′,N″-(1,3-phenylenebis(methan-1-yl-1-ylidene))bis(N-methylbenzothiohydrazide)]",0.54,0.20
"CN(/N=C/c1cccc(/C=N/N(C)C(=S)c2ccccc2)n1)C(=S)c1ccccc1 [Compound 16, (N′,N″E,N′,N″E)-N′,N″-(pyridine-2,6-diylbis(methan-1-yl-1-ylidene))bis(N-methylbenzothiohydrazide)]",0.48,0.18
